From publication PMC10170162, “Identification of a new gibberellin receptor agonist, diphegaractin, by a cell-free chemical screening system” (Communications Biology, 2023) come the findings set out here.

Holding throughout (assay): AlphaScreen GID1-DELLA interaction
What all share (format): biochemical
For orientation: Bead proximity is the source of the signal in Alpha formats.

Experiment [1] concerns the target T1, VvGID1a (with VvDELLA2) (Vitis vinifera, UniProt A5BRG2).
T1 construct: C-terminal biotinylated GID1 and C-terminal FLAG-tagged DELLA, wheat germ cell-free synthesis, unpurified; also tested with VvDELLA1 and VvDELLA3; with DELLA protein
T1 sequence (A5BRG2 1-344): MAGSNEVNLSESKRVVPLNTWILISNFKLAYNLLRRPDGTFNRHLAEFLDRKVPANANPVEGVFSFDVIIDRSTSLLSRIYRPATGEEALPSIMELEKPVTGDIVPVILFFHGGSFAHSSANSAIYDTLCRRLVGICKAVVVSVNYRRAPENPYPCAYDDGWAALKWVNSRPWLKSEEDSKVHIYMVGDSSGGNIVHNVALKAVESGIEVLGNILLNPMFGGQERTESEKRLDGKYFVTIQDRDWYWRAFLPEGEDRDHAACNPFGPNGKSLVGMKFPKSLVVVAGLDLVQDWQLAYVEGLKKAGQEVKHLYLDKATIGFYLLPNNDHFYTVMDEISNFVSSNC
T1 sequence (F6HH58 1-532 partner): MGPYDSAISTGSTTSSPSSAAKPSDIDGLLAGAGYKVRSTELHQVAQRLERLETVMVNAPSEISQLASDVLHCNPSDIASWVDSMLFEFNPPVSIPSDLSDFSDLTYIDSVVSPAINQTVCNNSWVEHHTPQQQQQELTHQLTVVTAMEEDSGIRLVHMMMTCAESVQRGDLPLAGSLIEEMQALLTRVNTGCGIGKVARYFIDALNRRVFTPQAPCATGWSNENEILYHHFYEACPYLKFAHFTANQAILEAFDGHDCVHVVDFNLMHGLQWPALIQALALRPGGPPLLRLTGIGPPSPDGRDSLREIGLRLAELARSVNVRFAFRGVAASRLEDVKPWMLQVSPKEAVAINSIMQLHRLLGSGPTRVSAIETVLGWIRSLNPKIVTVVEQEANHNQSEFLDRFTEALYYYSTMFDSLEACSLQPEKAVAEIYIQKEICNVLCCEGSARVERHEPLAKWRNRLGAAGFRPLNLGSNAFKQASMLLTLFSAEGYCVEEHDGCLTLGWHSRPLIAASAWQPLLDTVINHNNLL
Particulars: agonist; partner VvDELLA2 (also VvDELLA1, VvDELLA3); dose series; pH 8.0, 26 °C; unpurified cell-free proteins.

Experiment [2] addresses T2, OsGID1 (with OsSLR) (Oryza sativa, UniProt Q6L545, V326I/L330F).
T2 construct: gene GID1; C-terminal biotinylated GID1 and C-terminal FLAG-tagged DELLA, wheat germ cell-free synthesis, unpurified; with DELLA protein SLR1
T2 sequence (Q6L545 1-354 V326I/L330F): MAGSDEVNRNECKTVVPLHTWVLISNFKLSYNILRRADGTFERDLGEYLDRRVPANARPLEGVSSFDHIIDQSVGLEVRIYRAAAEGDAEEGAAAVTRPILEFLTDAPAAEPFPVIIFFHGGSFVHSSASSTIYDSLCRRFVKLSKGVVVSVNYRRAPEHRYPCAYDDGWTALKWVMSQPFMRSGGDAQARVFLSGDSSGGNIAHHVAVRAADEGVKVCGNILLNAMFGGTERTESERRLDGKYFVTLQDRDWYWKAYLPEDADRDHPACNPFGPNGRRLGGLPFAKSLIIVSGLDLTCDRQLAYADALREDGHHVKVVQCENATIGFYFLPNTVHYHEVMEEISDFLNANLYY
T2 sequence (Q7G7J6 1-625 partner): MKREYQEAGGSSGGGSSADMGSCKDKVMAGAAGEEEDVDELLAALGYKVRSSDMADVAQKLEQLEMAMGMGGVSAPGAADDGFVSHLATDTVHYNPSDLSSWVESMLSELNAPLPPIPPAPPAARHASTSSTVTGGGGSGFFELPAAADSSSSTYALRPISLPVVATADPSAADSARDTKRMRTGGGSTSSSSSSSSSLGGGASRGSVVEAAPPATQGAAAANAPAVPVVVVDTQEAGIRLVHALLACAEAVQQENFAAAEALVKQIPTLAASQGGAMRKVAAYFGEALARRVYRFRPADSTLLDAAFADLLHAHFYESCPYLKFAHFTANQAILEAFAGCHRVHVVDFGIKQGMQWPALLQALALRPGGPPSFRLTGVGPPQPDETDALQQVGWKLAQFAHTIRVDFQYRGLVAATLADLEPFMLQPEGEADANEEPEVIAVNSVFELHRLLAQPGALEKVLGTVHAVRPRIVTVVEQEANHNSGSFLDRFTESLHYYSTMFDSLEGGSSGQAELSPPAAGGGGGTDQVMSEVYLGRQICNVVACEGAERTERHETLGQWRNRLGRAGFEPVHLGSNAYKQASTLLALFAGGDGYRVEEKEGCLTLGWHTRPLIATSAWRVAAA
Particulars: agonist; partner OsSLR; pH 8.0, 26 °C; unpurified cell-free proteins.

The target in experiment [3] is T3, AtGID1c (with AtRGA) (Arabidopsis thaliana, UniProt Q940G6).
T3 construct: gene GID1C; C-terminal biotinylated GID1 and C-terminal FLAG-tagged DELLA, wheat germ cell-free synthesis, unpurified; also tested with AtGAI; with DELLA protein RGA
T3 sequence (Q940G6 2-344): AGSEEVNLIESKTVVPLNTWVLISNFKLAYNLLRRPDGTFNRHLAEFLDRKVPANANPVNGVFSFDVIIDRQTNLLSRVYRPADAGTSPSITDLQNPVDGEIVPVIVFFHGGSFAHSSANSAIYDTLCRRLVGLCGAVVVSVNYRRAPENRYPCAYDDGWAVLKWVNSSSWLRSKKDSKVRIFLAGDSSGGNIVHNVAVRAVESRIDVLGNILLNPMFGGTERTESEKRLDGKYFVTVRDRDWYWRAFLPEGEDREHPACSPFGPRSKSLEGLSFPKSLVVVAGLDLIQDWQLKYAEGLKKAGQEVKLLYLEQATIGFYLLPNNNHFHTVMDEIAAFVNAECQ
T3 sequence (Q9SLH3 1-587 partner): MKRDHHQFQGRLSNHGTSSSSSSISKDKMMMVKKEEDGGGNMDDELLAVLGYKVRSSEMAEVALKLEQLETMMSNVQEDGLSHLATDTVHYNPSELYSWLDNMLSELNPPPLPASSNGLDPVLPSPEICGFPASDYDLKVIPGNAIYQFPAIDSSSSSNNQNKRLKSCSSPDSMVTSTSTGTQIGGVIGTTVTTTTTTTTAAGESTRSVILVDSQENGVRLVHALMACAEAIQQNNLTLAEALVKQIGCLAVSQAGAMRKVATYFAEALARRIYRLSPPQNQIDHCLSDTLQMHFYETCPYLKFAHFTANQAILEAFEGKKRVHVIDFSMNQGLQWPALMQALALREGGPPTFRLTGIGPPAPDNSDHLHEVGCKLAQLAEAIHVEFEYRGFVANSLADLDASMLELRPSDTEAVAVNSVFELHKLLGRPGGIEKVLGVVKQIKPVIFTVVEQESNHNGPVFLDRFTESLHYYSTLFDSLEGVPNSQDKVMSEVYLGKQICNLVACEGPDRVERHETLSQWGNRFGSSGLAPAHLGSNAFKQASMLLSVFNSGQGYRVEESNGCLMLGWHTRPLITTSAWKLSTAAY
Particulars: agonist; partner AtRGA (also AtGAI); pH 8.0, 26 °C; unpurified cell-free proteins.

Experiment [4] deals with T4, VvGID1b (with VvDELLA2) (Vitis vinifera, UniProt F6HQ36).
T4 construct: C-terminal biotinylated GID1 and C-terminal FLAG-tagged DELLA, wheat germ cell-free synthesis, unpurified; cDNA from grape leaf mRNA; with DELLA protein
T4 sequence (F6HQ36 1-344): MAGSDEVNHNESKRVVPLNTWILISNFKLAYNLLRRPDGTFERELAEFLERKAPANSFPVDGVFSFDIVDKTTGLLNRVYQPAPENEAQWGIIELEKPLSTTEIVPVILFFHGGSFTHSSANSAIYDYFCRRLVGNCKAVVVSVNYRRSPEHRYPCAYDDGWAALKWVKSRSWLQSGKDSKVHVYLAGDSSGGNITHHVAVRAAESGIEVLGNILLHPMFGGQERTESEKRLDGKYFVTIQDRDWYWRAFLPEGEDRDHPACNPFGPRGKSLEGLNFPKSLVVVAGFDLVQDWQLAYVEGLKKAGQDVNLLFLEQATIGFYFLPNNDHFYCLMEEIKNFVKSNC
T4 sequence (F6HH58 1-532 partner): T1 sequence (F6HH58 1-532 partner)
Particulars: agonist; partner VvDELLA2 (also VvDELLA1); dose series; pH 8.0, 26 °C; unpurified cell-free proteins.

Experiment [5] concerns the target T5, AtGID1b (with AtRGA) (Arabidopsis thaliana, UniProt Q9LYC1).
T5 construct: gene GID1B; C-terminal biotinylated GID1 and C-terminal FLAG-tagged DELLA, wheat germ cell-free synthesis, unpurified; with DELLA protein RGA
T5 sequence (Q9LYC1 2-358): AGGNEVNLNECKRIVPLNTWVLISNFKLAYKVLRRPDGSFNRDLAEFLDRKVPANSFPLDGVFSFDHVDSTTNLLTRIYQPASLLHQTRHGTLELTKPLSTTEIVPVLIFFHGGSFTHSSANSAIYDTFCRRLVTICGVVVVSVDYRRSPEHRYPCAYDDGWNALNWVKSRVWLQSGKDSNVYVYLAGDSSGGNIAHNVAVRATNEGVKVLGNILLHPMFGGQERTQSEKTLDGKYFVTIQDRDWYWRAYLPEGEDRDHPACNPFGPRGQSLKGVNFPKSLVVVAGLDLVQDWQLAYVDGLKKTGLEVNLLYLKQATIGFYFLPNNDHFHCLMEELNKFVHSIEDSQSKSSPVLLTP
T5 sequence (Q9SLH3 1-587 partner): T3 sequence (Q9SLH3 1-587 partner)
The settings on record: agonist; partner AtRGA; pH 8.0, 26 °C; unpurified cell-free proteins.

Structures are written as SMILES.

For `C=C1C[C@]23C[C@H]1CC[C@H]2[C@@]12CCC[C@@](C)(C(=O)O1)[C@H]2[C@@H]3C(=O)O` [GA9], the “AlphaScreen GID1-DELLA interaction” value in experiment [1] is “Although a much higher concentration was required, inactive GAs also induced these interactions”.
Regarding `CCCCCC(C(=O)O)(c1ccccc1)c1ccccc1` [diphegaractin, 2,2-diphenylheptanoic acid], the “AlphaScreen GID1-DELLA interaction” value was “OsGID1 V326I/L330F mutant increased the interaction with OsSLR by diphegaractin” in experiment [2]; “AtGID1c with AtRGA and AtGAI” in experiment [3]; “diphegaractin induced two interactions, VvGID1b–VvDELLA1 and VvGID1b–VvDELLA2” in experiment [4]; “it promoted the interaction of AtGID1b with AtRGA” in experiment [5].
Turning to `C=C1C[C@]23C[C@@]1(O)CC[C@H]2[C@@]12C=C[C@H](O)[C@@](C)(C(=O)O1)[C@H]2[C@@H]3C(=O)O` [GA3], the “AlphaScreen GID1-DELLA interaction” value in experiment [2] was “swapping had little effect on the interaction between DELLA proteins and GA receptors by GA3”; in experiment [1], “VvGID1a exhibited GA-dependent interactions with VvDELLA1-3”; in experiment [4] it was “VvGID1b also exhibited active and inactive GA-dependent interactions with VvDELLA1 and VvDELLA2”.
On to `C=C1C[C@]23C[C@@]1(O)CC[C@H]2[C@@]12CC[C@H](O)[C@@](C)(C(=O)O1)[C@H]2[C@@H]3C(=O)O` [GA1], for which the “AlphaScreen GID1-DELLA interaction” value was “VvGID1a exhibited GA-dependent interactions with VvDELLA1-3” in experiment [1]; “VvGID1b also exhibited active and inactive GA-dependent interactions with VvDELLA1 and VvDELLA2” in experiment [4].
On to `C=C1C[C@]23C[C@H]1CC[C@H]2[C@@]12C=C[C@H](O)[C@@](C)(C(=O)O1)[C@H]2[C@@H]3C(=O)O` [GA7], for which the “AlphaScreen GID1-DELLA interaction” value is “VvGID1a exhibited GA-dependent interactions with VvDELLA1-3” in experiment [1]; “VvGID1b also exhibited active and inactive GA-dependent interactions with VvDELLA1 and VvDELLA2” in experiment [4].
As for `C=C1C[C@]23C[C@@]1(O)CC[C@H]2[C@@]12CCC[C@@](C)(C(=O)O1)[C@H]2[C@@H]3C(=O)O` [GA20], the “AlphaScreen GID1-DELLA interaction” value in experiment [1] was “Although a much higher concentration was required, inactive GAs also induced these interactions”.
With `C=C1C[C@]23C[C@H]1CC[C@H]2[C@@]12CC[C@H](O)[C@@](C)(C(=O)O1)[C@H]2[C@@H]3C(=O)O` [GA4], the “AlphaScreen GID1-DELLA interaction” value is “VvGID1a exhibited GA-dependent interactions with VvDELLA1-3” in experiment [1]; “VvGID1b also exhibited active and inactive GA-dependent interactions with VvDELLA1 and VvDELLA2” in experiment [4].
